From ChEMBL document CHEMBL6127039, “An update on small molecule compounds targeting synthetic lethality for cancer therapy” (Eur J Med Chem, 2024)

Assays:
[1] = Inhibition of DNA-PK (unknown origin) expressed in human HeLa cells; type: cell-based
[2] = Antiproliferative activity against human HCT116-MTAP null cells assessed as reduction in cell growth incubated for 72 hrs by MTT assay; type: functional, cell-based
[3] = target: Protein arginine N-methyltransferase 5 (Homo sapiens, UniProt O14744); experiment: Binding affinity to PRMT5 (unknown origin) assessed as inhibition constant
[4] = target: Serine/threonine-protein kinase ATR (Homo sapiens, UniProt Q13535); experiment: Inhibition of human recombinant ATR incubated for 40 mins by fluorescence based analysis
[5] = target: Poly [ADP-ribose] polymerase 1 (Homo sapiens, UniProt P09874); experiment: Inhibition of PARP-1 (unknown origin)
[6] = Half life in Sprague-Dawley rat at 20 mg/kg, po by LC-MS/MS analysis; type: ADME, organism-based; settings: in vivo
[7] = AUC (0 to t) in Sprague-Dawley rat at 20 mg/kg, po by LC-MS/MS analysis; type: ADME, organism-based; settings: in vivo
MV4-11 = experiment: Antiproliferative activity against human MV4-11 cells assessed as reduction in cell viability incubated for 72 hrs by MTS assay; type: functional, cell-based; settings: MV4-11, 72 h
[8] = target: T1, Serine/threonine-protein kinase Chk1 (Homo sapiens, UniProt O14757); experiment: Inhibition of CHK1 (unknown origin)
T1 sequence (O14757 whole entry): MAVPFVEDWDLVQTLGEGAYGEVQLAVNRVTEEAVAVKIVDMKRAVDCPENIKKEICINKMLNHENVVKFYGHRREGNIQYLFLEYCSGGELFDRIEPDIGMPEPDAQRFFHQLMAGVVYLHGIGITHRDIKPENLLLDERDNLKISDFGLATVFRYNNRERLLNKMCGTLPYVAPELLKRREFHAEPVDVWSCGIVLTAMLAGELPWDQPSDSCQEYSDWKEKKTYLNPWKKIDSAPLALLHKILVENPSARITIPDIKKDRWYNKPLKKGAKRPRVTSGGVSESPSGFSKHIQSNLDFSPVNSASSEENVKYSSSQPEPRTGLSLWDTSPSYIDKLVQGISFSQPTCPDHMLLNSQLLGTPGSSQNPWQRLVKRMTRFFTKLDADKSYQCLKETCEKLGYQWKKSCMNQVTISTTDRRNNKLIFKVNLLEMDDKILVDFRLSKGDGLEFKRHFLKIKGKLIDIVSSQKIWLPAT

[9] = target: T2, DNA repair protein RAD51 homolog 1 (Homo sapiens, UniProt Q06609); experiment: Inhibition of RAD51 (unknown origin)
T2 sequence (Q06609 whole entry): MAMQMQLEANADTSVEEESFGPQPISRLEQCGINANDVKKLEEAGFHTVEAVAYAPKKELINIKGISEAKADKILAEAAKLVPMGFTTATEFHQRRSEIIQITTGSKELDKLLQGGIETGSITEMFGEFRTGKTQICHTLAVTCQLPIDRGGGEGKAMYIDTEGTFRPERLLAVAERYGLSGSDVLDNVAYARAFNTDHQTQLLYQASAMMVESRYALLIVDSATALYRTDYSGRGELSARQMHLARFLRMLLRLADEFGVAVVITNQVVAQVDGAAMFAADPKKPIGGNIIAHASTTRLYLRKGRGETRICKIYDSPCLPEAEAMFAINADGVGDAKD

[10] = target: Serine/threonine-protein kinase VRK2 (Homo sapiens, UniProt Q86Y07); experiment: Inhibition of VRK2 (14 to 335 residues) (unknown origin) extracted from Escherichia coli BL21 (DE3)-R3 cells
[11] = target: Serine-protein kinase ATM (Homo sapiens, UniProt Q13315); experiment: Inhibition of ATM (unknown origin)
[12] = target: Serine/threonine-protein kinase mTOR (Homo sapiens, UniProt P42345); experiment: Inhibition of human mTOR
MDA-MB-436 = experiment: Antiproliferative activity against human MDA-MB-436 cells assessed as reduction in cell viability; type: functional, cell-based

Sequence of Serine/threonine-protein kinase ATR (Q13535 whole entry): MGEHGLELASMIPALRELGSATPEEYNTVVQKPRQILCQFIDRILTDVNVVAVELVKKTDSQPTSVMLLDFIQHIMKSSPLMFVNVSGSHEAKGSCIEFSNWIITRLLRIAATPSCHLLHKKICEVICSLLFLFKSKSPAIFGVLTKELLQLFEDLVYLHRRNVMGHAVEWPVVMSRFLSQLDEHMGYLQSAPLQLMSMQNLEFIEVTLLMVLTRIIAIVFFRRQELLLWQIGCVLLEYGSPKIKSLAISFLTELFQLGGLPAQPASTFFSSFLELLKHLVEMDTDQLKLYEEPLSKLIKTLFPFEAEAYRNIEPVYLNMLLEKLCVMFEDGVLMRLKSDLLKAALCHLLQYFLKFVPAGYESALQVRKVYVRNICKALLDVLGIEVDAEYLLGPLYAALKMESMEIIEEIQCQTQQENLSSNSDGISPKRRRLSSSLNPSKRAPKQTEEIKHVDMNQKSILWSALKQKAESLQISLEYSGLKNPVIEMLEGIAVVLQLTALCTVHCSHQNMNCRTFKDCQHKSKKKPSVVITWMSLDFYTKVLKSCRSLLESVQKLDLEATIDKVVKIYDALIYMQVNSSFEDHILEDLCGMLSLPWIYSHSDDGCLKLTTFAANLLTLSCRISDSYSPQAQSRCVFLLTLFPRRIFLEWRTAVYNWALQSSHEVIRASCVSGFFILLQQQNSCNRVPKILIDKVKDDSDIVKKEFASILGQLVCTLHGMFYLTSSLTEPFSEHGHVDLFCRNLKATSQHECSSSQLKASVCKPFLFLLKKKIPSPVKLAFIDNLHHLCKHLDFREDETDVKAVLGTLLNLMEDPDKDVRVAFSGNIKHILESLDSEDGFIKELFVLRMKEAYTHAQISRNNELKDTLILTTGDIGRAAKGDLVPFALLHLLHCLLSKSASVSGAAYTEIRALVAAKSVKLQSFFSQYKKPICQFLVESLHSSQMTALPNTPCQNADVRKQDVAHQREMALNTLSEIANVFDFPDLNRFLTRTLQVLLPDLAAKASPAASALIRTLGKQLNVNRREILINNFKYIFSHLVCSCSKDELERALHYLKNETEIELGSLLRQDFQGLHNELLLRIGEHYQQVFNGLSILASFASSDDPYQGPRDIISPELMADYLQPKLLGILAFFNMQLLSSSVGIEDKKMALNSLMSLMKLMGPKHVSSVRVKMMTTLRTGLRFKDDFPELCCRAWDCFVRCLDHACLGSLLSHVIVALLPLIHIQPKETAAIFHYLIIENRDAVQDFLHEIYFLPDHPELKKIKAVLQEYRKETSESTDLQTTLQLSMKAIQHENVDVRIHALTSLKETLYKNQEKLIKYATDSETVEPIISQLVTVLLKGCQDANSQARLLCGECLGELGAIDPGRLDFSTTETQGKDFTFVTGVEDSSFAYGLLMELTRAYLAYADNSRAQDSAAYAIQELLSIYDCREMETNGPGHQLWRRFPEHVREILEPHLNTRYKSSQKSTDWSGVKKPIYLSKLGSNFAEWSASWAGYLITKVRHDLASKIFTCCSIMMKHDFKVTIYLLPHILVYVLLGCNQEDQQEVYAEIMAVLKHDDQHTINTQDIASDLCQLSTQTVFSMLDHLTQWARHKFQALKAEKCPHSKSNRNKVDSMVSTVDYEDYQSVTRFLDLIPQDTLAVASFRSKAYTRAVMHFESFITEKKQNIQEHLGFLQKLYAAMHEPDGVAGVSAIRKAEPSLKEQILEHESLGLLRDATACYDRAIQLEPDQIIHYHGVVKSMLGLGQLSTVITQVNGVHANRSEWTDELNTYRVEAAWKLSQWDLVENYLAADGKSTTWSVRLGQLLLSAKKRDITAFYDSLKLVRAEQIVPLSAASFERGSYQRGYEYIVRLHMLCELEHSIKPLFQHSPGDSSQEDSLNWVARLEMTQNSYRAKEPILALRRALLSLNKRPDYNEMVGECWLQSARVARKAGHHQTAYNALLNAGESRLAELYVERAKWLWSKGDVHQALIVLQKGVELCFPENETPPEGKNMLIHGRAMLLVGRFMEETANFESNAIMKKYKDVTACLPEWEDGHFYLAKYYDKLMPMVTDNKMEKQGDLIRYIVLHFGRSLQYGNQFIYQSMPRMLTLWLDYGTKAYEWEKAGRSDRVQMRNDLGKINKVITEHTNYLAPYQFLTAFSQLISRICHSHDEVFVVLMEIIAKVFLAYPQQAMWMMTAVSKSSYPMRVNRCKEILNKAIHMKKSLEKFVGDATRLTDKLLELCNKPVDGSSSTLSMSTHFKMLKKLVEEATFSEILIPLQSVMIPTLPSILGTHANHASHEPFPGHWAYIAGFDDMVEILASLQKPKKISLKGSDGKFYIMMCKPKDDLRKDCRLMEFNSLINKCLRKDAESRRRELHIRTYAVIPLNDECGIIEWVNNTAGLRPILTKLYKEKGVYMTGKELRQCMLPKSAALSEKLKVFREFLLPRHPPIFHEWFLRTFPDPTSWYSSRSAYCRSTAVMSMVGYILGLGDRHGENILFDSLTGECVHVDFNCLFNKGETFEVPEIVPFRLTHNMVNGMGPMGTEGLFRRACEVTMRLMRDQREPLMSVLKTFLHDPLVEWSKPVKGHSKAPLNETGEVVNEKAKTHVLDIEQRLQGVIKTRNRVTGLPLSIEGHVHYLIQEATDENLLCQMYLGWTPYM
Sequence of Protein arginine N-methyltransferase 5 (O14744 whole entry): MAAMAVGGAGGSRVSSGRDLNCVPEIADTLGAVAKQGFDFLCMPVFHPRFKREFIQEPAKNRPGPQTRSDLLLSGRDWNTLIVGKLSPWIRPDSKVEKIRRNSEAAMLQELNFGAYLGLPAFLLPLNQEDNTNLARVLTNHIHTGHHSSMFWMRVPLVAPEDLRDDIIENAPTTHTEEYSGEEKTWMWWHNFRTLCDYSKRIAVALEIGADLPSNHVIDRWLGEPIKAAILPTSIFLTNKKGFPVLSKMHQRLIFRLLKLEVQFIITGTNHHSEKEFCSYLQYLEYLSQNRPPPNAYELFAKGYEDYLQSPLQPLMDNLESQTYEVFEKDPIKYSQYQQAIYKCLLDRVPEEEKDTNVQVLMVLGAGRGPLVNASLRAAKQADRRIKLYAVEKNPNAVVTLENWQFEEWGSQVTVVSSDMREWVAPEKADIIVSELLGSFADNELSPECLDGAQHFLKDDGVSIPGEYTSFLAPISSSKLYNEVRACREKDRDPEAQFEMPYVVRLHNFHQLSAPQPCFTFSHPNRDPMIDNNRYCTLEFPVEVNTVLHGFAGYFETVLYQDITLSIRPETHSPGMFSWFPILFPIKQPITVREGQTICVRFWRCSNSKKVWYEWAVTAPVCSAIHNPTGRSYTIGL
Sequence of Poly [ADP-ribose] polymerase 1 (P09874 whole entry): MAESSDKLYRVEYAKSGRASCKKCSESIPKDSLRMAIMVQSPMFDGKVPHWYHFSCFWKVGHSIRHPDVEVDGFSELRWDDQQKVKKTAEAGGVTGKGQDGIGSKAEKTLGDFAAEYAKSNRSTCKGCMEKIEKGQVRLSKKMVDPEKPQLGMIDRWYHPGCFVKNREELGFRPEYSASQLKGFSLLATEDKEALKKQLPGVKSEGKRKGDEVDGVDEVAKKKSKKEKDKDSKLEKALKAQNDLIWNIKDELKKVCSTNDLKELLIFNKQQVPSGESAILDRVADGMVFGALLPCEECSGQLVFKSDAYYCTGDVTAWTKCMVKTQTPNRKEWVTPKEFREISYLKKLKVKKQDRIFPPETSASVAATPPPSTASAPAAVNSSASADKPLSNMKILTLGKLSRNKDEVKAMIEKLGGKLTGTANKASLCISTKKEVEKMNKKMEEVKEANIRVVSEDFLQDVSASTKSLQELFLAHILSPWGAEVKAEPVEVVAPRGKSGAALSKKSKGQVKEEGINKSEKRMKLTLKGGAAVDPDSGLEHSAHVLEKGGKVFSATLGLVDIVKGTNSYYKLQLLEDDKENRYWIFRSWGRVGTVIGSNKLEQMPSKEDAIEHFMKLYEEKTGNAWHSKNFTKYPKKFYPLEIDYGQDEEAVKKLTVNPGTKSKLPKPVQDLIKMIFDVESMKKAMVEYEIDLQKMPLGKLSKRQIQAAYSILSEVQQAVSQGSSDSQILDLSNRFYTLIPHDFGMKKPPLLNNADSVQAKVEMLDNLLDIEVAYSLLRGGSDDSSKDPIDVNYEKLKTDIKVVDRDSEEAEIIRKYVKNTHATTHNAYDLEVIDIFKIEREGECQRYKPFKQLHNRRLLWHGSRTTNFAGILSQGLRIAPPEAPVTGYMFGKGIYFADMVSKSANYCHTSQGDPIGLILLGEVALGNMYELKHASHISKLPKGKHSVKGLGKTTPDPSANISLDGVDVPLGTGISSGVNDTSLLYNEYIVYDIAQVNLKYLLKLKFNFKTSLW
Sequence of Serine/threonine-protein kinase VRK2 (Q86Y07 whole entry, the tested form may be a part): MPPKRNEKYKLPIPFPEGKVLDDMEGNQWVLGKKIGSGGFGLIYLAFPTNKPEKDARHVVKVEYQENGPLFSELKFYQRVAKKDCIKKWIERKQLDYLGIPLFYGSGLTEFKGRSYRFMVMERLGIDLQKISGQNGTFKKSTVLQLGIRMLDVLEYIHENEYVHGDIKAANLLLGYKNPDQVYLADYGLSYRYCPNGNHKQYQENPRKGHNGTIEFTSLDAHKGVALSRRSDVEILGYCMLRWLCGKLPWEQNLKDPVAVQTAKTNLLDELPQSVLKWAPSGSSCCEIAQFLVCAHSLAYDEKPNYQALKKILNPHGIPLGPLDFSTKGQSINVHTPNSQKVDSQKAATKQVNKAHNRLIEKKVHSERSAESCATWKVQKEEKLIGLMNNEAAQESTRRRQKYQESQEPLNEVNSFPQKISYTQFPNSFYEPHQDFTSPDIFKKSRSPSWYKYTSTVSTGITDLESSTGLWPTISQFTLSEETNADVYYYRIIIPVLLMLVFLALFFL

`COc1cccc(NC(=O)c2cc(-c3ccc(/C=C4\C(=O)N(c5cccc(C(=O)O)c5)N=C4C)o3)ccc2Cl)c1` gave an IC50 [1] of 3120 nM.

Compound `Cc1cc2cc(C(=O)N(Cc3ccc(C(F)(F)F)cn3)[C@@H]3CCCc4cn[nH]c43)ccc2nc1N` has an IC50 [2] of 10 nM and a Ki [3] of 0.05 nM.

`C[C@@H]1COCCN1c1nc(-c2ccnn2C)c2c(n1)c(-c1ccn[nH]1)nn2C` showed an IC50 [4] of 1 nM.

With `Cc1ccoc1C(=O)N1CCCN(C(=O)c2ccc(-c3nc4c(C(N)=O)cccc4[nH]3)cc2)CC1` the IC50 [5] was 22.8 nM.

In the case of `COC1/C=C/Cc2cnc3cc(C)c(cn23)Nc2ncc3c(n2)n(c(=O)n3C)CC1` (stereo unspecified), the IC50 [1] is reported as 4 nM.

With `Cn1cc(-c2cnc(Nc3ccc(C#N)nc3)nc2N[C@H]2CCCNC2)cn1` the half-life [6] was 5.3 h, the AUCt ([7]; po, 20 mg/kg) was 1370 ng·h/mL and the IC50 (MV4-11) was 35 nM.

`Cc1cc2ncc3n2cc1Nc1ncc2c(n1)n(c(=O)n2C)CCCCC3` gave an IC50 [1] of 4 nM.

Work on `COc1cccc(NC(=O)c2cc(-c3ccc(CC4C(=O)N(c5cccc(C(=O)O)c5)N=C4C)o3)ccc2Cl)c1` (stereo unspecified) yielded an IC50 [1] of 500 nM.

Work on `Cc1cc(C(N)=O)ccc1Nc1ncc2c(n1)n(C1CCOCC1)c(=O)n2C` yielded an IC50 [1] of 0.08 nM.

`Nc1nc2cc(F)c(C(=O)N(Cc3ccc(C(F)(F)F)cn3)C34CC(C3)C4)cc2c2c1COC2` showed an IC50 [2] of 8 nM.

With `N#Cc1ncc(Nc2ncc(-c3ccccc3)s2)cc1N[C@@H]1CCNC1` the IC50 [8] was 4.25 nM and the AUC(0-t) ([7]; Sprague-Dawley) was 10700 ng·h/mL.

`O=c1nc(/C=C/c2cccnc2)n(Cc2ccccc2)c2ccccc12` gave an IC50 [9] of 4300 nM.

`COc1cccc(NC(=O)c2cc(-c3ccc(CC4C(=O)N(c5cccc(C(=O)O)c5)N=C4C(F)(F)F)o3)ccc2Cl)c1` (stereo unspecified) showed an IC50 [1] of 110 nM.

In the case of `CC(C)CCN1c2nc(Nc3cc(F)c(O)c(F)c3)ncc2N(C)C(=O)[C@@H]1C`, the IC50 [10] is reported as 196 nM.

With `C[C@@H]1COC[C@H]2COc3c(nc(-c4ccnc5[nH]ccc45)nc3C(C)(C)C#N)N21` the IC50 [4] was 16 nM.

Compound `COc1cccc(NC(=O)c2cc(-c3ccc(CC4C(=O)N(c5cccc(-c6nnn[nH]6)c5)N=C4C)o3)ccc2Cl)c1` (stereo unspecified) has an IC50 [1] of 240 nM.

Compound `Cn1c(=O)n2c3ccccc3oc3c(-c4ccc(OCCCN5CCCCC5)nc4)c(F)cc4ncc1c2c43` has an IC50 [11] of 0.45 nM.

With `O=c1nc(/C=C/c2cccnc2)n(Cc2ccc(I)cc2)c2ccccc12` the IC50 [9] was 720 nM.

For `C[C@@H]1COCCN1c1cc([C@]2(O)C[C@H]3CC[C@@H](C2)O3)c2cnn(-c3cc[nH]n3)c2n1` [CAMONSERTIB], the IC50 [4] was 1 nM and the IC50 [12] was 120 nM.

In the case of `COc1cc2ncn(-c3cc(OCc4ccccc4C(F)(F)F)c(C(N)=O)s3)c2cc1OC` [GW843682X], the IC50 [11] is reported as 480 nM.

Compound `O=C(c1cc(Cc2n[nH]c(=O)c3ccccc23)ccc1F)N1CCN(C(=O)C2CC2)CC1` [OLAPARIB] has an IC50 (MDA-MB-436) of 23900 nM.
